For one data set, the target named is GluN1a wt/ GluN2B F114A (Rattus norvegicus, UniProt P35439+Q00960, F114A). The data set can be described thus: TEVC recording in X. laevis oocytes, GluN2B mutant screening. The class given is cell-based. The settings on record: fitted curve.
The next data set has as its target GluN1a wt/ GluN2B E236A (Rattus norvegicus, UniProt P35439+Q00960, E236A). Described as above. To be noted: fitted curve. Type of data set: cell-based.
Data set [1] deals with GluN1a wt/ GluN2B N192A/F194A (Rattus norvegicus, UniProt P35439+Q00960, F194A/N192A). The data set is described as above. Type of data set: cell-based.
Data set [2] in a line: Solubility limit in TEVC compound solution. Type of data set: physicochemical. To be noted: higher concentrations could not be tested in TEVC.
For another data set, the target named is T1, GluN1-1a/GluN2B (Rattus norvegicus, UniProt P35439+Q00960).
T1 construct: eGFP; DsRed2 (C); expressed in transfected cells; host or cells: CHO cells (constructs a gift from Prof. Hollmann, Bochum)
The data set can be described thus: Single-channel patch clamp recordings (cell-attached) in CHO cells: open time, open channel probability. To be noted: 1 µM compound, without exon 5. The class given is cell-based. The method, then:
(§1) Chinese hamster ovary (CHO) cells were co-transfected with GluN1-1a eGFP and GluN2B pDsRed2-N1 or GluN1-1b eGFP and GluN2B pDsRed2-N1. The constructs were a generous gift from Prof. Hollmann (Bochum, Germany). GluN1-1b eGFP was obtained by subcloning of GluN1-1b in eGFP using BssHII and BtrI. Single-channel patch clamp recordings were performed at room temperature using an Axopatch 200B amplifier (Molecular Devices, USA). The patch clamp experiments on cultured CHO cells were done using Clampex 10.7 software (Molecular Devices, USA). Single-channel recordings were performed in the cell-attached configuration. Borosilicate glass pipettes with a resistance of 2–3 MΩ were backfilled with internal solution, consisting of 125 mM NaCl, 3 mM KCl, 1.25 mM NaH2PO4, 0.85 mM CaCl2, and 20 mM HEPES, 100 nM (S)-glutamate, and 20 µM glycine, adjusted to pH 7.4. During the recordings, the cells were continuously flushed with external solution, consisting of 141 mM potassium gluconate, 2.5 mM NaCl, 11 mM EGTA, and 10 mM HEPES, adjusted to pH 7.4 by KOH. The antagonist solution was prepared by adding 1 µM (R)-OF-NB1. All solutions were adjusted to a DMSO concentration of 0.1%. NMDA currents were measured by clamping GluN1-1a/GluN2B or GluN1-1b/GluN2B wild-type expressing CHO cells at − 70 mV. […] Data analysis was performed and evaluated using Clampfit 10.7 (Molecular Devices, USA).

The next data set concerns the target T2, GluN1-1b/GluN2B (Rattus norvegicus, UniProt P35439+Q00960).
T2 construct: eGFP; DsRed2 (C); expressed in transfected cells; host or cells: CHO cells
Described as above. Type of data set: cell-based. To be noted: 1 µM compound, exon 5 present. On the procedure:
as §1

Setting [3] is: agonists 10 µM glycine + 10 µM (S)-glutamate.

pIC50: −log10 of the molar value. Values after ≈ are worked out from the molar mass of the structure shown. Values joined by “and” are separate entries in the source; they are usually repeats but may differ in a detail not shown here. Identical values can stand only once.

Sequence of GluN1a wt/ GluN2B N192A/F194A (Q00960 27-1482 N192A/F194A, other chains not shown): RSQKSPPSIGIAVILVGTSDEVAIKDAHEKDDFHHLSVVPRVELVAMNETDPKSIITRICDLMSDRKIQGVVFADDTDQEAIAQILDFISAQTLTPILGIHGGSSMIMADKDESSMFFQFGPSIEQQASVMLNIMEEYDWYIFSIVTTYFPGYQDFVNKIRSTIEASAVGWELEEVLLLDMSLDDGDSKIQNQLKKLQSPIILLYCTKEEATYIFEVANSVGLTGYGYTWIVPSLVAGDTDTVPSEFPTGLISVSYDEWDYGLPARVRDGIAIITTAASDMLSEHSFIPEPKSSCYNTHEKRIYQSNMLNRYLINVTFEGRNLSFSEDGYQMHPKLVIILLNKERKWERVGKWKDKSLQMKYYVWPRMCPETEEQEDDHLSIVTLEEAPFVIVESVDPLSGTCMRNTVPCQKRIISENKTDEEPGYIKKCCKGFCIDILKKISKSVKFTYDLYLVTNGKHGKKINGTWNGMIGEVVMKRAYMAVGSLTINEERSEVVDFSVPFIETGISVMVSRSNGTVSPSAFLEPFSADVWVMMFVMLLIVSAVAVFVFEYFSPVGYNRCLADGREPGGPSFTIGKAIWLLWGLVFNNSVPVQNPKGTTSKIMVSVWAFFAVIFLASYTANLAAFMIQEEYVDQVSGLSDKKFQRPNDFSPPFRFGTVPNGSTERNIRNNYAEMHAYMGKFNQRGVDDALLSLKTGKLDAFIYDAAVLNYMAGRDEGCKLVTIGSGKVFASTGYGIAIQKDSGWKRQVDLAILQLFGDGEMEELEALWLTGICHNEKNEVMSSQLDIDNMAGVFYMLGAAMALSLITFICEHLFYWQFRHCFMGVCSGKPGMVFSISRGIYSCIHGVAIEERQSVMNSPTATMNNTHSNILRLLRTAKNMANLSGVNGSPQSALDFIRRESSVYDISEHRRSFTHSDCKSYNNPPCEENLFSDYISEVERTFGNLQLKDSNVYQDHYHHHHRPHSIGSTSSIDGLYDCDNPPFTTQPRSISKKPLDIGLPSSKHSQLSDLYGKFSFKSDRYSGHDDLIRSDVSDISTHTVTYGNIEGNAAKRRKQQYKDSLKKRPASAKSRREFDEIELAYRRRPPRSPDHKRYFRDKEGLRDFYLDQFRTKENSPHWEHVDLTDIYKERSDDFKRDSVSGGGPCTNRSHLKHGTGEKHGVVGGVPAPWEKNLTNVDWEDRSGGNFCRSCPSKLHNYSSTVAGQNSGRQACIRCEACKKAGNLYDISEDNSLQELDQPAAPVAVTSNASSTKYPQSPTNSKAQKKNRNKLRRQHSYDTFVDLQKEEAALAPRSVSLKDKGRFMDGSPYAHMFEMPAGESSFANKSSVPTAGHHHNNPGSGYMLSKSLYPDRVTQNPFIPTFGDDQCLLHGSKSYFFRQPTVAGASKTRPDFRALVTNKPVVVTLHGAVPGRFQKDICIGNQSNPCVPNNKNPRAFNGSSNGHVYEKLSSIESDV
Sequence of GluN1a wt/ GluN2B E236A (Q00960 27-1482 E236A, other chains not shown): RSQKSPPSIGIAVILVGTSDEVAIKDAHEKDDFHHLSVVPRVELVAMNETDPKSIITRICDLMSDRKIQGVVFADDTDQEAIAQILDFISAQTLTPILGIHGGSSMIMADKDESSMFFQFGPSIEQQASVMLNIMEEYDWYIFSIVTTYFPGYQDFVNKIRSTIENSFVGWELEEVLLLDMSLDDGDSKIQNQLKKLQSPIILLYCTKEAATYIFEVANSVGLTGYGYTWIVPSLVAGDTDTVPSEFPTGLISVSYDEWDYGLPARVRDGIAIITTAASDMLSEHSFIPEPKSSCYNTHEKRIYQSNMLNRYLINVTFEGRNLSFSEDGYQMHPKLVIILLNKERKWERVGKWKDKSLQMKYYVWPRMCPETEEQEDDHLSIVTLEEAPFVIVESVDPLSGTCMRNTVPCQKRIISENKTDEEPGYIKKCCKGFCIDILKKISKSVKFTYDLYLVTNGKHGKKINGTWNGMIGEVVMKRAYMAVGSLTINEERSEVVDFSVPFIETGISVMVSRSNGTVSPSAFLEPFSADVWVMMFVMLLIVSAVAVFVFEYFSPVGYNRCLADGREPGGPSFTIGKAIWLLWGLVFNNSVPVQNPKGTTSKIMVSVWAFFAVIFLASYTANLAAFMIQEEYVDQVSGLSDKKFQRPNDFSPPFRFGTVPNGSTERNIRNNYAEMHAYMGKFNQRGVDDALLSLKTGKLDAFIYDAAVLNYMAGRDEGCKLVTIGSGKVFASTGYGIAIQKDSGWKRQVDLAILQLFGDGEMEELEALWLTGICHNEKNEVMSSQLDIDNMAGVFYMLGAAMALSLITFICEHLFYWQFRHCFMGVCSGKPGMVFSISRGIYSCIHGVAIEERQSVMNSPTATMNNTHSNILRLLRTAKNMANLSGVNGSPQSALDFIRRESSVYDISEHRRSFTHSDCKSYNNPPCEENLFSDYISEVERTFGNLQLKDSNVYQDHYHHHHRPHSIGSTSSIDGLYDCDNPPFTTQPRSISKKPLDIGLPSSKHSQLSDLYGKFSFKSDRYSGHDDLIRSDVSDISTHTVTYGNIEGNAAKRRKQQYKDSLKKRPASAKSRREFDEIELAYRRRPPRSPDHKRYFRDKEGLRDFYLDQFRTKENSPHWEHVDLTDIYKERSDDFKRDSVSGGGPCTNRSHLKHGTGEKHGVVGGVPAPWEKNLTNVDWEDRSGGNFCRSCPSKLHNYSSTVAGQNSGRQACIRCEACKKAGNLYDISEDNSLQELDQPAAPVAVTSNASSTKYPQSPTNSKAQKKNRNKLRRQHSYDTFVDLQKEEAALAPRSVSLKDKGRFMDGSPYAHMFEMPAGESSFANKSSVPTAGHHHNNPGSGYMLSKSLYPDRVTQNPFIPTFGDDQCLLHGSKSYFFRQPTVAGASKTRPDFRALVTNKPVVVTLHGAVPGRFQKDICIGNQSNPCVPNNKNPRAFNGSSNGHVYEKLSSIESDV
Sequence of GluN1a wt/ GluN2B F114A (Q00960 27-1482 F114A, other chains not shown): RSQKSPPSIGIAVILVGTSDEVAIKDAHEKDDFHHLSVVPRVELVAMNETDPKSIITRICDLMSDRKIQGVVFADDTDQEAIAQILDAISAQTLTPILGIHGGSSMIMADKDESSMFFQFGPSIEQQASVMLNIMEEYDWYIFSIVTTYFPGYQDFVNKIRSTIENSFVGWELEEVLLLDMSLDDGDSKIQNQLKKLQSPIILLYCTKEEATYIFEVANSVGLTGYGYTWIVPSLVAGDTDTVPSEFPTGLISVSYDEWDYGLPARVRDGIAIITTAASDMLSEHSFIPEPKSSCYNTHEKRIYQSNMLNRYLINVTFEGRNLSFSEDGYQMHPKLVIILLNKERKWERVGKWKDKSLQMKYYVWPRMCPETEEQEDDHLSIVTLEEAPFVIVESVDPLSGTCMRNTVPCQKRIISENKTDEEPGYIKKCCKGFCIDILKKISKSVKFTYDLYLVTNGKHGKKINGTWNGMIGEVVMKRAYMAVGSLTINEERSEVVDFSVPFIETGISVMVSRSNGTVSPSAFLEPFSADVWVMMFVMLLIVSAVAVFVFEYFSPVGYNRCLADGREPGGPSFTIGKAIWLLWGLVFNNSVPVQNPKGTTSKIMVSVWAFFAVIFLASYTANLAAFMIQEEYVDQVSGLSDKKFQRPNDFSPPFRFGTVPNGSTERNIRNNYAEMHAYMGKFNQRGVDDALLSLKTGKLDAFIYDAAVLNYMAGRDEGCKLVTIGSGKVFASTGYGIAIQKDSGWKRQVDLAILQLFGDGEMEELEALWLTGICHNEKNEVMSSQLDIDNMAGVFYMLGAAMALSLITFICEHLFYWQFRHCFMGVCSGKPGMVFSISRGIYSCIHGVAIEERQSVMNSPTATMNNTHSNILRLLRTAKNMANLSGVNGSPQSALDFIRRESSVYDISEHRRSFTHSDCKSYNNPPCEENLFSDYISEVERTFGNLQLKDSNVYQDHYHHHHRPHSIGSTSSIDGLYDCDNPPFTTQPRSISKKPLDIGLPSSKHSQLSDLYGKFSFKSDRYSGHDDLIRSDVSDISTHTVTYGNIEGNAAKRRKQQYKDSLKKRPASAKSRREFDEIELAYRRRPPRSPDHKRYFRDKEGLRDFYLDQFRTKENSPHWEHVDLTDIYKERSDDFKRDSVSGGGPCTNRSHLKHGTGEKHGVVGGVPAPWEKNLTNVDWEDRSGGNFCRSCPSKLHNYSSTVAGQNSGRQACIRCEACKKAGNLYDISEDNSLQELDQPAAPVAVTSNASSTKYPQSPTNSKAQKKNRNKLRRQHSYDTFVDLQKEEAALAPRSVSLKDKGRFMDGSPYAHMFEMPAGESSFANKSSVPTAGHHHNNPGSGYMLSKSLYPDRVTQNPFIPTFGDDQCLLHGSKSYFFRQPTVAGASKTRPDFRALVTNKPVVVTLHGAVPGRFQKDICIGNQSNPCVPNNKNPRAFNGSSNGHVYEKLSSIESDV

As to `Oc1ccc2c(c1)CCN(CCCCc1ccccc1F)C[C@@H]2O` [(R)-OF-NB1], the pIC50 is 5.18 on GluN1a wt/ GluN2B F114A (setting [3]) and 6.64 on GluN1a wt/ GluN2B E236A (setting [3]). For the same molecule, the values for the Hill coefficient (on GluN1a wt/ GluN2B F114A; at GluN1a wt/ GluN2B E236A; in data set [1] (fitted curve)) were 0.8, 1.1 and 0.3, respectively. In addition, at 1 µM the inhibition in data set [1] (GluN1-1a GluN2B N192A/F194A, compound concentration 1 μM, single oocytes) was 30.7%. Further, the “inhibition (%)” value is 27.3896% and 29.45% and 20.653% in data set [1] (GluN1-1a GluN2B N192A/F194A, compound concentration 1 μM, single oocytes, 1 µM); 48.3548% and 37.2275% and 43.7739% and 28.318% in data set [1] (GluN1-1a GluN2B N192A/F194A, compound concentration 10 μM, single oocytes, 10 µM); 42.6495% and 45.6455% and 35.2023% in data set [1] (GluN1-1a GluN2B N192A/F194A, compound concentration 30 μM, single oocytes, 30 µM). In addition, in data set [1] (GluN1-1a GluN2B N192A/F194A, compound concentration 30 μM, single oocytes), at 30 µM the inhibition was 50.8%. In data set [2], this molecule returned a solubility of 30 µM (≈ 9.88 µg/mL). Moreover, the “effect on open time of NMDAR” value at GluN1-1a/GluN2B and on GluN1-1b/GluN2B was “did not result in a significant reduction” throughout.
